The record followed here is US20050250093A1, “Hepatitis c virus sub-genomic replicons” (priority 2002, published 2005).

Series [1] relates to Huh-7 cells. Put plainly: Analysis of replicon copy number by TaqMan. The class given is cell-based, human. The settings on record: real-time PCR with primers and probes in the neo gene on total RNA from replicon cells. On the procedure:
Next, replicon RNA was quantified by TaqMan. Real-time PCR was conducted with primers and probes in the neo gene on total RNA isolated from the replicon cells and on standard neo containing DNA. Copy numbers of the replicon were calculated based on standard curve generated from known amount of in vitro transcribed RNA. J4 M/S contained about 147 copies/cell, BB7-F1 contained 57 copies/cell, HCV 1a replicon has 165 copies/cell, BB7/H77NS5B has 29 copies/cell. For a positive control, HCV BB7 replicon that has 1500 copies/cell while Huh-7 cells served as negative controls.
Cells were trypinized and counted to determine cell number. The total cellular RNA was isolated using RNeasy Mini Kit (Qiagen) following the manufacturer's protocol. The RNA was stored at −80° C. or assayed by TaqMan quantitative RT-PCR. For analysis by TaqMan PCR, a master mix was prepared using TaqMan EZ RT-PCR Kit (Applied Biosystems #403028), TaqMan PDAR Control Reagent Human Cyclophilin (Applied Biosystems #4310883E), custom primer Neo^R fwd CCG GCT ACC TGC CCA TTC [SEQ ID NO:28] […] Data was analyzed by leaving the baseline to default level on both layers, and set a threshold to an equal value for both dye layers. […] The copy number for each replicon sample was calculated by taking the sample's Ct value, minus the line intercept, divided by the slope of the line.

For series [2], the system named is Huh-7 cells. Briefly: Stable replication / G418 resistance after electroporation of replicon RNA into Huh-7 cells. Type of series: cell-based, human. The settings on record: replicon RNA prepared in vitro, G418 selection. The protocol:
In the present invention, certain chimeric replicon constructs were generated from pHCVrep1b(BB7) with sequences substituted with either type 1aHCV H77 sequence or by HCV type 1b J4 strain sequence. […] The methods for constructing these replicons are described herein.
RNA transcribed from the above replicon DNA was electroporated into Huh-7 cells according to the procedures in the examples. G418 resistant cells were obtained by incubating the cells in G418-containing media. Once the cells were amplified, total cellular protein was separated on SDS-PAGE and probed by NS5A serum to assess whether HCV proteins were expressed. As predicted, all three replicon cell lines expressed NS5A as shown on figure. Genomic DNA and RNA were also isolated from each replicon cell lines. PCR reactions on genomic DNA were carried out to assess the possibility that the G418 resistance was due to expression of the phosphatransferase from integrated neo resistant gene into the Huh-7 cell genome. […] Therefore, the date indicate that it is unlikely that the resistance is due to integration of residue DNA in our RNA preparation into the genome of Huh-7 cells.
Five […]g of replicon RNA was electroporated into 5×10^6 cells of the hepatoma cell line, Huh-7. […] Huh-7 cells were pelleted, washed, counted and resuspended to a final concentration of 1×10^7 cells/ml in Opti-MEM media (Invitrogen). […]

A further series relates to type 1a replicon system. Put plainly: Susceptibility of the type 1a replicon system to interferon and antiviral agents. Type of series: cell-based, HCV. The settings on record: type 1a replicon vs type 1b replicon system. A general note: In antiviral work, replicon cells carry a viral genome segment that copies itself.

The substance HCV 1a replicon gave a replicon copy number in the series with Huh-7 cells [1] of 165 copies/cell. The “generation of stable cell lines / stable replication after transfection into Huh-7 cells” value with Huh-7 cells [2] was “able to stably replicate and confer resistance to G418”.
As to interferon, the “susceptibility compared with the type 1b replicon system” value in the series on type 1a replicon system is on record as “similar”.
